Melting point data for 62 compounds are collected here from a melting point compilation (Tetko et al.; mined from patent text by program, amines drawn as free bases though some values may be those of a salt).

Usually melting point stands for the temperature of the solid-liquid transition.

For `CCCCCCCCCCc1ccc(CNc2ccc(C(=O)OCC)cc2)cc1`, the melting point lay in the range of 87 to 90 °C. Compound `N#Cc1cc(C(=O)NNC(=O)c2occc2-c2cccc(Oc3ccccc3)c2)ccc1O` came in with a melting point of 227 to 228 °C. As for `COc1ccc(C=O)c(O)c1Cl`, the figure is 114 to 117 °C; as for `CNC(=O)Oc1cnn(C(C)C)c1`, 40 °C. As for `CCOC(=O)C1=CCCCC1S(=O)(=O)Nn1cccc1` (configuration not stated), the figure is 85 to 86 °C. As for `Cc1oc(-c2ccccc2)nc1CCc1nc(CCl)co1`, the figure is 71 to 72 °C.

Regarding `O=CN(O)C(CCO)CS(=O)(=O)c1ccc(-c2ccc(F)cc2)cc1` (configuration not stated), the melting point is 160 to 162 °C. As for `CC(C)(C)c1ccc(S(=O)(=O)N2c3ccccc3C[C@H]2C(=O)NCc2ccc([N+](=O)[O-])cc2)cc1`, the figure is 75 to 80 °C. With `COc1cc(NC(=O)OC(C)(C)C)c(N)cc1-c1ccccc1F` the figure was 161 °C. As for `Clc1cnn2c(-c3cccnc3)ccnc12`, the figure is 225 to 226 °C; as for `CC(=NNC(=O)c1ccccc1)c1sc(C)nc1C`, 138 °C. Compound `O=C1C=C(NC(=O)C(=O)c2cn(Cc3ccc([N+](=O)[O-])cc3)c3ccccc23)CO1` displayed a melting point of 275 to 277 °C. With `Cc1nn(C)c(-n2ccc3cc(Cl)ccc32)c1CCS(=O)(=O)NC(=O)OCC1CC1` the figure was 170 °C; with `COc1cc(-c2ncc(C(F)(F)F)cc2Cl)c(F)cc1Cl`, 105 to 106 °C; with `COc1ccc(C(O)CNC(C)Cc2ccc(OCCO)cc2)cc1F` (configuration not stated), 112 to 115 °C.

On to `CCc1[nH]c(=S)n(Nc2cccc(Cl)c2)c1-c1ccccc1`, for which the melting point was in the range of 116 to 118 °C. Regarding `O=C1CC(c2cccc(-n3ccnc3)c2)=Nc2ccc(C3CC3)cc2N1`, the melting point was in the range of 198 to 200 °C.

For `CC(C)(O)c1ccc(-c2cnc3[nH]c(=O)n(CC4CCCCC4)c3n2)cc1`, the melting point was 226 to 228 °C. For `CCC(C(=O)c1ccc(Cl)cc1)n1ncn(-c2ccc(N3CCN(c4nc5ccccc5s4)CC3)cc2)c1=O` (configuration not stated), the melting point is 162 °C. `CCCC1CCC(O)(c2ccc(-c3ccccc3)c(F)c2)CC1` (configuration not stated) returned a melting point of 45 to 72 °C.

On to `CCCC1=C(C(=O)OCC)C(c2cccc3nsnc23)c2c[nH]nc2N1` (configuration not stated), for which the melting point is 180 °C. As for `CCC(CC)Cn1c(=O)c(=O)[nH]c2cc([N+](=O)[O-])c(-n3cccc3C(=O)OC)cc21`, the figure is 240 to 241 °C; as for `COC1=C(OC)C(=O)C(CCCCCCCCCCO)=C(C)C1=O`, 52 °C. On to `CC(=O)OC1CSC(Oc2ccc(-c3ccccn3)cc2)C(OC(C)=O)C1OC(C)=O` (configuration not stated), for which the melting point lay within 125 to 130 °C. As for `NS(=O)(=O)c1cc2cc(CCOCc3ccccc3)ccc2s1`, the figure is 136 to 138 °C; as for `Cc1ccc(S(=O)(=O)C=C(Cl)C#N)cc1`, 78 °C. With `CCC(CC)Oc1cc([N+](=O)[O-])ccc1N` the figure was 62 to 63 °C. With `CC(C)C(=O)Oc1ccc2c(c1)CCC1C2CCC2(C)C1CC(O[Si](C)(C)C(C)(C)C)C2OC(=O)C(C)C` (configuration not stated) the figure was 114 °C; with `OC1CCCc2nc3ccccc3c(NCc3ccc(C(F)(F)F)cc3)c21` (configuration not stated), 174 to 176 °C. In the case of `COCCCOc1cc(C[C@@H](CBr)C(C)C)ccc1OC`, the melting point fell in the range of 52 to 53 °C. With `Cc1nc(C)c(-c2cccc(OC3SCC(O)C(O)C3O)c2)s1` (configuration not stated) the figure was 158 to 164 °C. With `C#Cc1cc2c(Nc3ccc4[nH]ccc4c3)ncnc2cc1OC` the figure was 176 °C; with `COc1ccc(CBr)cc1[N+](=O)[O-]`, 110 to 112 °C; with `c1ccc(C(OC2CCN(CCCNc3ccc4nncn4n3)CC2)c2ccccc2)cc1`, 167 to 168 °C. As for `O=S(CCCCCCOc1ccc(C2=C(c3ccccc3)CCCc3cc(O)ccc32)cc1)CCCC(F)(F)C(F)(F)F` (configuration not stated), the figure is 121 °C; as for `COc1ccc(C2=Cc3ccc(OCc4ccccc4)cc3OC2)cc1`, 152 to 154 °C; as for `N#Cc1ccc(-c2n[nH]c3c2Cc2ccccc2-3)cc1`, 245 °C. Take `CC1(CC(=O)O)CCCCCC1=O` (configuration not stated): the melting point lay in the range of 43 to 45 °C.

In the case of `Cn1c(=O)nc(-c2ccccc2Cl)c2cc(Cl)sc21`, the melting point was in the range of 164 to 166 °C. Compound `CCOC(=O)c1cn(CCOC(C)=O)c2c(F)c(F)c(F)c(C)c2c1=O` registered a melting point of 192 to 193 °C. Compound `CN1C(=O)c2c(c3ccc(Cl)cc3n2CCN2CCCCC2)Oc2ccccc21` returned a melting point of 160 to 162 °C. As for `Brc1ccc2nc(N3CCOCC3)nn2c1`, the figure is 136 °C. As for `CCCCCS(=O)(=O)NC(=O)/C=C/c1cc(OC2CCOCC2)nn1Cc1ccc(Cl)cc1Cl`, the figure is 154 to 157 °C. With `COC=C(C(=O)OC)c1ccccc1Oc1ccn(-c2ccc(Cl)cc2)n1` the figure was 109 to 110 °C; with `CC(=O)Nc1nc(CCc2ccc(NC3=NCCN3)cc2)c(Cc2ccc(S(C)(=O)=O)cc2)s1`, 139 to 140 °C; with `CCCc1c(OCC(O)COc2ccc(C(=O)O)cc2Br)ccc(C(C)=O)c1O` (configuration not stated), 93 to 95 °C. Regarding `CCC(C)Cc1ccc(OC(=O)c2ccc(O)cc2Cl)cc1` (single isomer, unassigned; (+)), the melting point worked out at 142 °C. As for `O=S(=O)(Nc1ccc2oncc2c1)c1cc(Cl)ccc1Cl`, the figure is 173 to 174 °C.

Regarding `CCC(CN1C(=O)c2ccccc2C1=O)N1CCC(c2noc3cc(F)ccc23)CC1` (configuration not stated), the melting point lay in the range of 86 to 88 °C. `COC(=O)C(CCCCNC(=O)c1ccc(N)cc1)n1c2ccccc2c2ccccc21` (configuration not stated): the melting point lay within 90 to 91 °C. As for `CC(=O)Nc1ccc(F)c(-c2ccncc2)n1`, the figure is 254 to 256 °C. As for `O=C(c1ccccc1)c1ccc(N2CCC(N3C(=O)OCc4ccccc43)CC2)c([N+](=O)[O-])c1`, the figure is 272 to 273 °C; as for `CC(=NNc1ccc([N+](=O)[O-])cc1)N1CCOCC1`, 176 °C. With `CC1(C)CN(c2ncc(C(=O)N(c3cccc(C(F)(F)F)c3)C3CCCC3)c(N)n2)C(=O)N1` the figure was 135 to 139 °C; with `CC(C)(C)c1c(-c2ccc(S(C)(=O)=O)cc2)cnn(-c2ccc(F)c(F)c2)c1=O`, 158 to 161 °C; with `Cc1ccnc2c(-c3ccc(C)c4c(C)ccnc34)ccc(C)c12`, 290 to 295 °C. Compound `O=c1cc(CO)nc2ccn(-c3ccccc3)n12` displayed a melting point of 241 to 242 °C. As for `NC(=O)C1(Nc2ccccc2)CCN(C2CCCc3ccccc32)CC1` (configuration not stated), the figure is 186 to 187 °C; as for `NC1=NC2(CN(C(=O)c3cccs3)C2)Nc2cccc(F)c21`, 214 to 215 °C; as for `CN(C)S(=O)(=O)c1c(S(N)(=O)=O)c(C(C)(C)C)cn1C`, 98 to 101 °C. On to `CCOC(=O)c1c(C)cc(NC(C)=O)c(C(=O)O)c1C`, for which the melting point was 170 to 171 °C. As for `C#CC[C@H](c1nc2cc(Cl)ccc2c(=O)n1Nc1ccccc1)N(CCCN1C(=O)c2ccccc2C1=O)C(=O)c1cccc(Cl)c1F`, the figure is 130 to 132 °C.
